Test results published in patent US10179767B2 (GENENTECH, INC., priority 2015, dated 2019).
Counter-ions that a name gives are not always drawn.

Molecular target: T1, hNav1.7 (Homo sapiens, UniProt Q15858)
T1 construct: expressed in transfected cells
Test: Tritiated sulfonamide binding to membranes from cells expressing hNav1.7 and the β1 subunit (Nav 1.7 ligand binding assay, competitive)
Details: competition with 100 pM [3H]compound, room temperature, 18 h
Experimental: Tritiated Sulfonamide Binding to Membranes Isolated from Cells that Heterologously Express hNav1.7 and the β1 Subunit
Preparation of membranes containing recombinantly expressed sodium channels: Frozen recombinant cell pellets were thawed on ice and diluted to 4 times the cell pellet weight with ice cold 50 mM Tris HCl, pH 7.4 buffer. The cell suspensions were homogenized on ice using a motorized glass dounce homogeniser. Homogenates were further diluted 8.4 times with ice cold 50 mM Tris HCl, pH 7.4 buffer and then centrifuged at 200×g at 4° C. for 15 min. The supernatants were collected and centrifuged at 10000×g at 4° C. for 50 min. The pellets were then re-suspended in 100 mM NaCl, 20 mM Tris HCl, pH 7.4 buffer containing 1% v/v protease inhibitors (Calbiochem) and re-homogenized on ice. The homogenized membranes were then processed through a syringe equipped with a 26 gauge needle. Protein concentrations were determined by Bradford Assay and the membranes were stored at −80° C.
Radioligand Binding Studies:
Saturation experiments. A competitive NaV1.7 inhibitor having a methyl group was tritiated. Three tritiums were incorporated in place of methyl hydrogens to generate [^3H]compound. Binding of this radioligand was preformed in 5 mL borosilicate glass test tubes at room temperature. Binding was initiated by adding membranes to increasing concentrations of [^3H]compound in 100 mM NaCl, 20 mM Tris HCl, pH 7.4 buffer containing 0.01% w/v bovine serum albumin (BSA) for 18 h. Non-specific binding was determined in the presence of 1 μM unlabelled compound. After 18 h, the reactants were filtered through GF/C glass fiber filters presoaked in 0.5% w/v polyethylene imine Filters were washed with 15 mL ice cold 100 mM NaCl, 20 mM Tris HCl, pH7.4 buffer containing 0.25% BSA to separate bound from free ligand. [^3H]compound bound to filters was quantified by liquid scintillation counting.
Competitive Binding Experiments:
Binding reactions were preformed in 96-well polypropylene plates at room temperature for 18 h. In 360 μL, membranes were incubated with 100 pM [^3H]compound and increasing concentrations of Test Compound. Non-specific binding was defined in the presence of 1 μM unlabelled compound. Reactions were transferred and filtered through 96-well glass fiber/C filter plates presoaked with 0.5% polyethylene imine. The filtered reactions were washed 5 times with 200 μL ice cold buffer containing 0.25% BSA. Bound radioactivity was determined by liquid scintillation counting. Data Analysis: For saturation experiments, non-specific binding was subtracted from total binding to provide specific binding and these values were recalculated in terms of pmol ligand bound per mg protein. Saturation curves were constructed and dissociation constants were calculated using the single site ligand binding model: Beq=(Bmax*X)/(X+Kd), where Beq is the amount of ligand bound at equilibrium, Bmax is the maximum receptor density, Kd is the dissociation constant for the ligand, and X is the free ligand concentration. For competition studies percent inhibition was determined and IC50 values were calculated using a 4 parameter logistic model (% inhibition=(A+((B−A)/(1+((x/C)⨣D)))) using XLfit, where A and B are the maximal and minimum inhibition respectively, C is the IC50 concentration and D is the (Hill) slope.

T1 sequence (Q15858 whole entry): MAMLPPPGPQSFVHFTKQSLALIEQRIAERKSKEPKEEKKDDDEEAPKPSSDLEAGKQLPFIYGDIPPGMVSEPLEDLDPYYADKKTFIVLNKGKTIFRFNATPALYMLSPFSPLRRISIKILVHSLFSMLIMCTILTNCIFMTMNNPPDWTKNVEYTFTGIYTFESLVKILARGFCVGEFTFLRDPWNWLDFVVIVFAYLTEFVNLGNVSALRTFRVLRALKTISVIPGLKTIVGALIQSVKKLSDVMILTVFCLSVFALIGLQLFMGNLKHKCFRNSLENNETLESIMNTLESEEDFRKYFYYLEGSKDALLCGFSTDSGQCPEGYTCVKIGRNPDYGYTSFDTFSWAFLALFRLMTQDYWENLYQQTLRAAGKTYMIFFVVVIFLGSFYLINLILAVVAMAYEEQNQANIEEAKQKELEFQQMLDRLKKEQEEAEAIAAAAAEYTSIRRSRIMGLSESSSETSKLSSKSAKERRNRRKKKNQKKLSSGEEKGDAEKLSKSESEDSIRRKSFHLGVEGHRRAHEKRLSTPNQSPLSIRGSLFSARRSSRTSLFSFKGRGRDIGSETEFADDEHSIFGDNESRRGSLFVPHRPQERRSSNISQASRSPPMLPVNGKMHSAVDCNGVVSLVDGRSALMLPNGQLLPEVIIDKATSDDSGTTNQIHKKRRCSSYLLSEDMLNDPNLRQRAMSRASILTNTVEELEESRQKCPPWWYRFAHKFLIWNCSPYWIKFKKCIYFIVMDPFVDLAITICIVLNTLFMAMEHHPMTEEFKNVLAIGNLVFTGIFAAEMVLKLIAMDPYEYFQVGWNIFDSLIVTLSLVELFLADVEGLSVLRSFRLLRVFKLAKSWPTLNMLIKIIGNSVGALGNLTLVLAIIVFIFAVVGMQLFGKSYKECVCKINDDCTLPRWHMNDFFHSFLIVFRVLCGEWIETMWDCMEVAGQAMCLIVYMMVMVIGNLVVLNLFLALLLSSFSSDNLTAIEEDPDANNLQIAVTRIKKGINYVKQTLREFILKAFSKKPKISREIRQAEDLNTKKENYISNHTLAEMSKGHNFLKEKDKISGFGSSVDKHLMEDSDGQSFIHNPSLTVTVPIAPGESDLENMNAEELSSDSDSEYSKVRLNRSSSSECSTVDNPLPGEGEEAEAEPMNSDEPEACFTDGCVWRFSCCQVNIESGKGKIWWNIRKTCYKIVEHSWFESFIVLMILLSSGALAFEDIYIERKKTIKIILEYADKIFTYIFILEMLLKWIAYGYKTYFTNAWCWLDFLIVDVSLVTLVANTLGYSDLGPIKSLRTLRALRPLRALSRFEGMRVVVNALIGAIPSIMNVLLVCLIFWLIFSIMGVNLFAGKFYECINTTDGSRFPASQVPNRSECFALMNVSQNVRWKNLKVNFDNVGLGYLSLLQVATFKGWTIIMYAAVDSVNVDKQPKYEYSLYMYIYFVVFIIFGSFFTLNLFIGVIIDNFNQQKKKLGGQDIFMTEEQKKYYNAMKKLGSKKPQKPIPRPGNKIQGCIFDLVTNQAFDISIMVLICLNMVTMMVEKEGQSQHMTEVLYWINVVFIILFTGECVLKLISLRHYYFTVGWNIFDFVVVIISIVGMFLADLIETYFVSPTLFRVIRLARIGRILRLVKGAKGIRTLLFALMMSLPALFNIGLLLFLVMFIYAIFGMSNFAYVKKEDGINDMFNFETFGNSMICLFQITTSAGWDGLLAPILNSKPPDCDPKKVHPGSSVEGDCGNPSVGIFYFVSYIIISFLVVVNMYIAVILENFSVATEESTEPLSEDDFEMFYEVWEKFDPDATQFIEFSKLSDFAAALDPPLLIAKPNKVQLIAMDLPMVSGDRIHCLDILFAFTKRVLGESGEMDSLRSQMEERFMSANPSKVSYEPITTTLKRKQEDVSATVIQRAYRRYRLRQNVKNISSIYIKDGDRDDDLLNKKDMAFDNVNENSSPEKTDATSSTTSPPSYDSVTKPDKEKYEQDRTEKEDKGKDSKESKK
T1 sequence (Q07699 19-218 partner): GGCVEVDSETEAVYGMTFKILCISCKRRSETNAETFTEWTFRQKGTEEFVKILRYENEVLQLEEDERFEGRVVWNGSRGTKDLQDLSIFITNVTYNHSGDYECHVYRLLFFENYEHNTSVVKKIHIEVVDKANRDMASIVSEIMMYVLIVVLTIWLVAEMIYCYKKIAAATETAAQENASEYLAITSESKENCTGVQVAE

SMILES	IC50
CS(=O)(=O)NC(=O)c1cc(C2CC2)c(OCC2(F)CCN(Cc3ccc(Cl)cc3Cl)CC2)cc1F [Example 20, 5-Cyclopropyl-4-((1-(2,4-dichlorobenzyl)-4-fluoropiperidin-4-yl)methoxy)-2-fluoro-N-(methylsulfonyl)benzamide]	3.5 nM
COCC(c1cc(Cl)cc(Cl)c1F)N1CCC(COc2cc(F)c(C(=O)NS(C)(=O)=O)cc2C2CC2)CC1 (stereo not drawn) [Example 21, 5-cyclopropyl-4-((1-(1-(3,5-dichloro-2-fluorophenyl)-2-methoxyethyl)piperidin-4-yl)methoxy)-2-fluoro-N-(methylsulfonyl)benzamide]	4.4 nM
CS(=O)(=O)NC(=O)c1cc(C2CC2)c(OCC2CCN(Cc3cc(Cl)cc(OC4CC4)c3)CC2)cc1F [Example 28, 4-((1-(3-Chloro-5-cyclopropoxybenzyl)piperidin-4-yl)methoxy)-5-cyclopropyl-2-fluoro-N-(methylsulfonyl)benzamide]	6 nM
CS(=O)(=O)NC(=O)c1cc(C2CC2)c(OCC2(F)CCN(Cc3ccc(F)cc3Cl)CC2)cc1F [Example 29, 4-((1-(2-Chloro-4-fluorobenzyl)-4-fluoropiperidin-4-yl)methoxy)-5-cyclopropyl-2-fluoro-N-(methylsulfonyl)benzamide]	4.2 nM
CS(=O)(=O)NC(=O)c1cc(C2CC2)c(OCC2(F)CCN(Cc3cc(F)cc(Cl)c3)CC2)cc1F [Example 30, 4-((1-(3-Chloro-5-fluorobenzyl)-4-fluoropiperidin-4-yl)methoxy)-5-cyclopropyl-2-fluoro-N-(methylsulfonyl)benzamide]	4.9 nM
CS(=O)(=O)NC(=O)c1cc(C2CC2)c(OCC2(F)CCN(Cc3ccc(F)c(Cl)c3)CC2)cc1F [Example 31, 4-((1-(3-Chloro-4-fluorobenzyl)-4-fluoropiperidin-4-yl)methoxy)-5-cyclopropyl-2-fluoro-N-(methylsulfonyl)benzamide]	5.3 nM
O=C(NS(=O)(=O)N1CCC1)c1cc(C2CC2)c(O[C@H]2CCCN(Cc3ccc(F)cc3Cl)C2)cc1F [Example 41, (S)—N-(azetidin-1-ylsulfonyl)-4-((1-(2-chloro-4-fluorobenzyl)piperidin-3-yl)oxy)-5-cyclopropyl-2-fluorobenzamide]	140 nM
CS(=O)(=O)NC(=O)c1cc(C2CC2)c(OCC2(F)CCN(Cc3ncc(C(F)(F)F)cc3Cl)CC2)cc1F [Example 42, 4-((1-((3-chloro-5-(trifluoromethyl)pyridin-2-yl)methyl)-4-fluoropiperidin-4-yl)methoxy)-5-cyclopropyl-2-fluoro-N-(methylsulfonyl)benzamide]	19 nM
CS(=O)(=O)NC(=O)c1cc(C2CC2)c(OCC2(F)CCN(Cc3cc(C(F)(F)F)cc(C4CC4)n3)CC2)cc1F [Example 43, 5-cyclopropyl-4-((1-((6-cyclopropyl-4-(trifluoromethyl)pyridin-2-yl)methyl)-4-fluoropiperidin-4-yl)methoxy)-2-fluoro-N-(methylsulfonyl)benzamide]	9.8 nM
CC(c1ncc(Cl)cc1Cl)N1CCC(COc2cc(F)c(C(=O)NS(C)(=O)=O)cc2C2CC2)CC1 (stereo not drawn) [Example 44, 5-cyclopropyl-4-((1-(1-(3,5-dichloropyridin-2-yl)ethyl)piperidin-4-yl)methoxy)-2-fluoro-N-(methylsulfonyl)benzamide]	18 nM
CC(c1cc(Cl)cc(C2CC2)n1)N1CCC(COc2cc(F)c(C(=O)NS(C)(=O)=O)cc2C2CC2)CC1 (stereo not drawn) [Example 46, 4-((1-(1-(4-chloro-6-cyclopropylpyridin-2-yl)ethyl)piperidin-4-yl)methoxy)-5-cyclopropyl-2-fluoro-N-(methylsulfonyl)benzamide]	12 nM
CC(c1cc(Cl)cc(C2CC2)n1)N1CCC(COc2cc(F)c(C(=O)NS(=O)(=O)C3CC3)cc2C2CC2)CC1 (stereo not drawn) [Example 47, 4-((1-(1-(4-chloro-6-cyclopropylpyridin-2-yl)ethyl)piperidin-4-yl)methoxy)-5-cyclopropyl-N-(cyclopropylsulfonyl)-2-fluorobenzamide]	9.9 nM
CC(c1cc(Cl)cc(Cl)c1)N1CCC2(CC1)CC(Oc1cc(F)c(C(=O)NS(C)(=O)=O)cc1C1CC1)C2 (stereo not drawn) [Example 48, 5-cyclopropyl-4-((7-(1-(3,5-dichlorophenyl)ethyl)-7-azaspiro[3.5]nonan-2-yl)oxy)-2-fluoro-N-(methylsulfonyl)benzamide]	9 nM
CS(=O)(=O)NC(=O)c1cc(C2CC2)c(OCC2CCN(Cc3cc(Cl)cc(C4CC4)n3)CC2)cc1F [Example 49, 4-((1-((4-chloro-6-cyclopropylpyridin-2-yl)methyl)piperidin-4-yl)methoxy)-5-cyclopropyl-2-fluoro-N-(methylsulfonyl)benzamide]	11 nM
CC(c1cc(C(F)(F)F)cc(C2CC2)n1)N1CCC(COc2cc(F)c(C(=O)NS(C)(=O)=O)cc2C2CC2)CC1 (stereo not drawn) [Example 50, 5-cyclopropyl-4-((1-(1-(6-cyclopropyl-4-(trifluoromethyl)pyridin-2-yl)ethyl)piperidin-4-yl)methoxy)-2-fluoro-N-(methylsulfonyl)benzamide]	9.1 nM
CC(c1cc(C(F)(F)F)cc(C2CC2)n1)N1CCC(COc2cc(F)c(C(=O)NS(=O)(=O)C3CC3)cc2C2CC2)CC1 (stereo not drawn) [Example 51, 5-cyclopropyl-4-((1-(1-(6-cyclopropyl-4-(trifluoromethyl)pyridin-2-yl)ethyl)piperidin-4-yl)methoxy)-N-(cyclopropylsulfonyl)-2-fluorobenzamide]	11 nM
C[C@@H]1[C@H](Oc2cc(F)c(C(=O)NS(C)(=O)=O)cc2C2CC2)CCCN1Cc1cc(Cl)cc(Cl)c1 [Example 52, 5-cyclopropyl-4-(((2R,3R)-1-(3,5-dichlorobenzyl)-2-methylpiperidin-3-yl)oxy)-2-fluoro-N-(methylsulfonyl)benzamide]	2.4 nM
CS(=O)(=O)NC(=O)c1cc(C2CC2)c(OCC2CCN(Cc3cc(Cl)cc(C(F)(F)F)n3)CC2)cc1F [Example 53, 4-((1-((4-chloro-6-(trifluoromethyl)pyridin-2-yl)methyl)piperidin-4-yl)methoxy)-5-cyclopropyl-2-fluoro-N-(methylsulfonyl)benzamide]	9.4 nM
O=C(NS(=O)(=O)C1CC1)c1cc(C2CC2)c(OCC2CCN(Cc3cc(Cl)cc(C(F)(F)F)n3)CC2)cc1F [Example 54]	4.2 nM
CC(C)Oc1ncc(CN2CCC(F)(COc3cc(F)c(C(=O)NS(C)(=O)=O)cc3C3CC3)CC2)cc1Cl [Example 55, 4-((1-((5-chloro-6-isopropoxypyridin-3-yl)methyl)-4-fluoropiperidin-4-yl)methoxy)-5-cyclopropyl-2-fluoro-N-(methylsulfonyl)benzamide]	5.6 nM
CC(C)Oc1ncc(CN2CCC(F)(COc3cc(F)c(C(=O)NS(=O)(=O)C4CC4)cc3C3CC3)CC2)cc1Cl [Example 56, 4-((1-((5-chloro-6-isopropoxypyridin-3-yl)methyl)-4-fluoropiperidin-4-yl)methoxy)-5-cyclopropyl-N-(cyclopropylsulfonyl)-2-fluorobenzamide]	6.8 nM
C[C@@H](c1cc(Cl)cc(Cl)c1)N1CCC(COc2cc(F)c(C(=O)NS(=O)(=O)C3(F)CC3)cc2C2CC2)CC1 [Example 57, (S)-4-((2-cyclopropyl-5-fluoro-4-(((1-fluorocyclopropyl)sulfonyl)carbamoyl)phenoxy)methyl)-1-(1-(3,5-dichlorophenyl)ethyl)piperidin-1-ium trifluoroacetate]	8.6 nM
C[C@@H](c1cc(Cl)cc(Cl)c1)N1CCC(F)(COc2cc(F)c(C(=O)NS(=O)(=O)N3CCC3)cc2C2CC2)CC1 [Example 58, (S)—N-(azetidin-1-ylsulfonyl)-5-cyclopropyl-4-((1-(1-(3,5-dichlorophenyl)ethyl)-4-fluoropiperidin-4-yl)methoxy)-2-fluorobenzamide]	5.6 nM
O=C(NS(=O)(=O)C1CC1)c1cc(C2CC2)c(OCC2(F)CCN(c3cc(C(F)(F)F)c(Cl)cn3)CC2)cc1F [Example 59, 4-((1-(5-chloro-4-(trifluoromethyl)pyridin-2-yl)-4-fluoropiperidin-4-yl)methoxy)-5-cyclopropyl-N-(cyclopropylsulfonyl)-2-fluorobenzamide]	9.3 nM
